Values joined by “and” are separate entries in the source; they are usually repeats but may differ in a detail not shown here. Equal values may be shown once. Inconclusive results and toxic doses are left out. No stated cut-off is given here; in the data, active means T/C of 150% or more; inactive means T/C below 125%.
Test system: L1210 leukemia ip in BDF1 mice, survival T/C
Assay: NCI In Vivo Anticancer Drug Screen. Data for tumor model L1210 Leukemia (intraperitoneal) in B6D2F1 (BDF1) mice
Conditions: endpoint: mean survival time, higher = longer survival
In short: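 Mice bearing the transplanted tumor received compound or vehicle. Survival of the treated group was divided by that of the vehicle-treated control group to give the ratio.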

[1] = dose: 100.0 mg/kg/injection, schedule: Q04DX003 (ip), vehicle: Klucel (hydroxypropylcellulose) (HPC)
[2] = dose: 200.0 mg/kg/injection, schedule: Q04DX003 (ip), vehicle: Klucel (hydroxypropylcellulose) (HPC)
[3] = dose: 100.0 mg/kg/injection, schedule: Q01DX009 (ip), vehicle: saline with Tween-80
[4] = dose: 200.0 mg/kg/injection, schedule: Q01DX009 (ip), vehicle: saline with Tween-80
[5] = dose: 100.0 mg/kg/injection, schedule: Q01DX001 (ip), vehicle: carboxymethylcellulose (CMC)
[6] = dose: 200.0 mg/kg/injection, schedule: Q01DX001 (ip), vehicle: carboxymethylcellulose (CMC)
[7] = dose: 400.0 mg/kg/injection, schedule: Q01DX001 (ip), vehicle: carboxymethylcellulose (CMC)
[8] = dose: 100.0 mg/kg/injection, schedule: Q04DX003 (ip), vehicle: saline
[9] = dose: 100.0 mg/kg/injection, schedule: Q01DX009 (ip), vehicle: Klucel (hydroxypropylcellulose) (HPC)
[10] = dose: 200.0 mg/kg/injection, schedule: Q01DX009 (ip), vehicle: Klucel (hydroxypropylcellulose) (HPC)
[11] = dose: 400.0 mg/kg/injection, schedule: Q01DX009 (ip), vehicle: Klucel (hydroxypropylcellulose) (HPC)
[12] = dose: 400.0 mg/kg/injection, schedule: Q04DX003 (ip), vehicle: Klucel (hydroxypropylcellulose) (HPC)
[13] = dose: 200.0 mg/kg/injection, schedule: Q04DX003 (ip), vehicle: saline
[14] = dose: 400.0 mg/kg/injection, schedule: Q04DX003 (ip), vehicle: saline
[15] = dose: 25.0 mg/kg/injection, schedule: Q01DX009 (ip), vehicle: Klucel (hydroxypropylcellulose) (HPC)
[16] = dose: 25.0 mg/kg/injection, schedule: Q04DX003 (ip), vehicle: Klucel (hydroxypropylcellulose) (HPC)

Measured: T/C

Cc1cc2c(c(Cl)n1)C(=O)OC2=O
inactive: dose: 75.0 mg/kg/injection, schedule: Q01DX001 (ip), vehicle: other 95 % of control | dose: 150.0 mg/kg/injection, schedule: Q01DX001 (ip), vehicle: other 95 % of control | dose: 300.0 mg/kg/injection, schedule: Q01DX001 (ip), vehicle: other 103 % of control

O=C(O)c1cccc(F)c1C(=O)c1ccc2ccccc2c1 (tested in a mixture with another compound)
inactive: [1] 105 % of control | [2] 86 % of control

Cc1cc2c(cc1C)C1(c3ccccc3)OC2(c2ccccc2)C(C(=O)c2ccccc2)C1C(=O)c1ccccc1 (stereo unspecified)
inactive: dose: 50.0 mg/kg/injection, schedule: Q01DX009 (ip), vehicle: saline with Tween-80 91 % of control | [3] 91 % of control | [4] 91 % of control

O=C(Nc1ccc(C2=NCCN2)cc1)c1ccc(N=Nc2ccc(C(=O)Nc3ccc(C4=NCCN4)cc3)cc2)cc1
inactive: dose: 125.0 mg/kg/injection, schedule: Q01DX Z (ip), vehicle: water 106 % of control | dose: 250.0 mg/kg/injection, schedule: Q01DX Z (ip), vehicle: water 107 % of control

O=C(C[N+]12CN3CN(CN(C3)C1)C2)c1ccc(Cl)cc1
inactive: dose: 40.0 mg/kg/injection, schedule: Q01DX Z (ip), vehicle: saline 98 % of control | dose: 44.0 mg/kg/injection, schedule: Q01DX Z (ip), vehicle: carboxymethylcellulose (CMC) 109 % of control | dose: 50.0 mg/kg/injection, schedule: Q01DX001 (ip), vehicle: carboxymethylcellulose (CMC) 107 % of control | dose: 60.0 mg/kg/injection, schedule: Q01DX Z (ip), vehicle: saline 107 % of control | dose: 73.0 mg/kg/injection, schedule: Q01DX Z (ip), vehicle: carboxymethylcellulose (CMC) 110 % of control | dose: 90.0 mg/kg/injection, schedule: Q01DX Z (ip), vehicle: saline 109 % of control | [5] 102 % of control | dose: 110.0 mg/kg/injection, schedule: Q01DX Z (ip), vehicle: carboxymethylcellulose (CMC) 113 % of control | dose: 135.0 mg/kg/injection, schedule: Q01DX Z (ip), vehicle: saline 109 % of control | dose: 165.0 mg/kg/injection, schedule: Q01DX Z (ip), vehicle: carboxymethylcellulose (CMC) 115 % of control | [6] 100 % of control | dose: 202.5 mg/kg/injection, schedule: Q01DX Z (ip), vehicle: saline 112 % of control | dose: 303.7 mg/kg/injection, schedule: Q01DX Z (ip), vehicle: saline 113 % of control | [7] 107 % of control

C1CCC2C(C1)NC1CCCCC12 (stereo unspecified)
inactive: [8] 97 % of control

COc1cccc(CNc2ccc(C)cc2C)c1OC
inactive: [9] 100 % of control | [1] 92 % of control | [10] 107 % of control | [2] 91 % of control | [11] 109 % of control | [12] 97 % of control

CCOC(=O)/C(C)=N\N(C)C
inactive: dose: 100.0 mg/kg/injection, schedule: Q01DX009 (ip), vehicle: saline 92 % of control | [8] 97 % of control | dose: 200.0 mg/kg/injection, schedule: Q01DX009 (ip), vehicle: saline 92 % of control | [13] 101 % of control | [14] 88 % of control

Cc1ccc2nc(-c3cc(Br)ccc3O)c(-c3cc(Br)ccc3O)nc2c1
inactive: [9] 97 % of control | [1] 96 % of control | [10] 100 % of control | [2] 101 % of control | [11] 89 % of control | [12] 101 % of control

Cc1ccc(NCC(O)CN2CCCC2)cc1 (stereo unspecified)
inactive: dose: 6.0 mg/kg/injection, schedule: Q01DX009 (ip), vehicle: Klucel (hydroxypropylcellulose) (HPC) 94 % of control | dose: 12.0 mg/kg/injection, schedule: Q01DX009 (ip), vehicle: Klucel (hydroxypropylcellulose) (HPC) 92 % of control | dose: 12.5 mg/kg/injection, schedule: Q01DX001 (ip), vehicle: Klucel (hydroxypropylcellulose) (HPC) 93 % of control | dose: 12.5 mg/kg/injection, schedule: Q04DX003 (ip), vehicle: Klucel (hydroxypropylcellulose) (HPC) 104 % of control | dose: 25.0 mg/kg/injection, schedule: Q01DX001 (ip), vehicle: Klucel (hydroxypropylcellulose) (HPC) 93 % of control | [15] 96 % of control and 100 % of control | [16] 96 % of control | dose: 50.0 mg/kg/injection, schedule: Q01DX001 (ip), vehicle: Klucel (hydroxypropylcellulose) (HPC) 93 % of control

CCCCCCCCCCCCCCCC(=O)N(CCCN)CCCCN(CCCN)C(=O)CCCCCCCCCCCCCCC
inactive: dose: 100.0 mg/kg/injection, schedule: Q01DX001 (ip), vehicle: saline with Tween-80 100 % of control | [3] 103 % of control | dose: 100.0 mg/kg/injection, schedule: Q04DX003 (ip), vehicle: saline with Tween-80 110 % of control | dose: 200.0 mg/kg/injection, schedule: Q01DX001 (ip), vehicle: saline with Tween-80 96 % of control | [4] 96 % of control | dose: 200.0 mg/kg/injection, schedule: Q04DX003 (ip), vehicle: saline with Tween-80 107 % of control | dose: 400.0 mg/kg/injection, schedule: Q01DX001 (ip), vehicle: saline with Tween-80 104 % of control | dose: 400.0 mg/kg/injection, schedule: Q01DX009 (ip), vehicle: saline with Tween-80 96 % of control | dose: 400.0 mg/kg/injection, schedule: Q04DX003 (ip), vehicle: saline with Tween-80 111 % of control

N#CC(C#N)=NNc1cccc(Cl)c1Cl
inactive: dose: 5.0 mg/kg/injection, schedule: Q01DX009 (ip), vehicle: saline with Tween-80 90 % of control | dose: 10.0 mg/kg/injection, schedule: Q01DX009 (ip), vehicle: saline with Tween-80 88 % of control

O=C(O)C(O)c1ccc([N+](=O)[O-])cc1 (stereo unspecified)
inactive: dose: 75.0 mg/kg/injection, schedule: Q01DX001 (ip), vehicle: saline 92 % of control | dose: 100.0 mg/kg/injection, schedule: Q04DX002 (ip), vehicle: saline with Tween-80 95 % of control | dose: 150.0 mg/kg/injection, schedule: Q01DX001 (ip), vehicle: saline 94 % of control | dose: 200.0 mg/kg/injection, schedule: Q04DX002 (ip), vehicle: saline with Tween-80 103 % of control | dose: 300.0 mg/kg/injection, schedule: Q01DX001 (ip), vehicle: saline 90 % of control | dose: 400.0 mg/kg/injection, schedule: Q04DX002 (ip), vehicle: saline with Tween-80 100 % of control

CN(C)CCC(C=NCC(CCN(C)C)(CCN(C)C)c1cccc2ccccc12)(CCN(C)C)c1cccc2ccccc12
inactive: dose: 12.5 mg/kg/injection, schedule: Q01DX009 (ip), vehicle: saline with Tween-80 90 % of control | dose: 12.5 mg/kg/injection, schedule: Q04DX003 (ip), vehicle: saline with Tween-80 102 % of control | dose: 25.0 mg/kg/injection, schedule: Q01DX009 (ip), vehicle: saline with Tween-80 91 % of control | dose: 25.0 mg/kg/injection, schedule: Q04DX003 (ip), vehicle: saline with Tween-80 98 % of control

COc1cc(OC)c(OCc2ccccc2)c(OC)c1
inactive: [5] 96 % of control | [6] 94 % of control | [7] 96 % of control

NC(=O)N/N=C1/CCN2CCCc3cccc1c32
inactive: dose: 12.5 mg/kg/injection, schedule: Q01DX009 (ip), vehicle: Klucel (hydroxypropylcellulose) (HPC) 95 % of control | [15] 103 % of control | [16] 103 % of control | dose: 50.0 mg/kg/injection, schedule: Q01DX009 (ip), vehicle: Klucel (hydroxypropylcellulose) (HPC) 93 % of control | dose: 50.0 mg/kg/injection, schedule: Q04DX003 (ip), vehicle: Klucel (hydroxypropylcellulose) (HPC) 97 % of control | [1] 95 % of control

O=C(OCC(OC(=O)c1ccccc1)C(OC(=O)c1ccccc1)C(OC(=O)c1ccccc1)C(SCc1ccccc1)SCc1ccccc1)c1ccccc1 (stereo unspecified)
inactive: [5] 101 % of control | [6] 97 % of control | [7] 95 % of control

CCCCN1C(=O)CCC1=O
inactive: [8] 110 % of control | [13] 103 % of control | [14] 110 % of control
